We go through two substances from patent publication US8703419B2, “Method for diagnosis/prognosis of cancers using an epigenetic marker consisting of a specific single CpG site in TTP promoter and treatment of cancers by regulating its epigenetic status” (Korea Research Institute of Bioscience and Biotechnology, priority 2009, dated 2014).

Common to all, as to type: cell-based, human
For data set [1], the system named is RNAPII binding to the TTP locus. In words: ChIP analysis of RNAPII binding to the TTP locus. The following applies: PLC/PRF/5 cells; regardless of AzadC treatment. From the text: To establish the molecular mechanism of epigenetic regulation of TTP, the present inventors estimated the levels of different forms of phosphorylated RNAPII (RNA polymerase II) proteins bound to the TTP locus by ChIP (chromatin immunoprecipitation) analysis, i.e., unphosphorylated form (unP) as a measure of transcriptional initiation, and those phosphorylated at serine 5 (pS5) and serine 2 (pS2) of the carboxy-terminal repeat domain as a measure of promoter escape/capping and transcriptional elongation, respectively.
(§1) ChIP analysis was performed using a specific assay kit (Millipore, USA) according to manufacturer's specifications. SK-Hep1 and PLC/PRF/5 cells were pre-treated or not treated with AzadC for 72 hours, to which TGFβ1 was additionally treated or not treated. The cells were treated with formaldehyde, leading to the binding of DNA to the protein (DNA conjugated protein), followed by cell lysis. After DNA fractionation, the antibody to RNAPII protein shown in Table 7 was added thereto, followed by reaction at 4° C. for overnight. The antibody was isolated by adding 50 μl of Protein A/G PLUS-Agarose. At this time, the DNA specifically bound to the antibody was purified. The purified DNA proceeded to PCR using the primer sets of Table 8.

The next data set deals with c-Myc mRNA. In words: c-Myc mRNA level after TGFβ1 (RT-PCR). As for the experimental part:
(§2) Total RNA was extracted from the HCC cell lines by using RNeasy mini kit (QIAGEN, USA). Distilled water was added to 1 μg of the total RNA and 1 μl of oligo-d(T) (Invitrogen, USA, 0.5 μg/μl) to make the total volume of the mixture 50 μl, followed by RT-PCR in AccuPower RT-premix (Bioneer, Korea). Before RT-PCR, cDNA was synthesized as follows: at 70° C. for 5 minutes, at 4° C. for 5 minutes, at 42° C. for 60 minutes, at 94° C. for 5 minutes, and at 4° C. for 5 minutes to produce cDNA. PCR was performed by using the obtained cDNA (3˜5 μl) or distilled water (negative control) as a template with the primer set as shown in Table 1 and PCR Master Mix (Promega, USA). PCR conditions were as follows: pre-denaturation at 95° C. for 5 minutes, denaturation at 95° C. for 45 seconds, annealing at 65° C. for […], polymerization at 72° C. for 45 seconds, 35 cycles from denaturation to polymerization, final extension at 72° C. for 5 minutes, and cooling at 4° C. The amplified product was quantified via standardization with β-actin.
SK-Hep1 and PLC/PRF/5 cells which had been pre-treated or not treated with AzadC for 72 hours were treated additionally with TGFβ1 for 0, 0.5, 1.0, 1.5, 2.0, and 2.5 hours. Then RT-PCR was performed with the cells by using the primer sets of Table 10 in the same manner as described in Example <1-2>.

The test system of data set [2] is phospho-SMAD2/3 binding to TRR. The experiment in a line: ChIP analysis of phosphorylated SMAD2/3 binding to TRR. The settings on record: both SK-Hep1 and PLC/PRF/5 cell lines. On the procedure:
as §1
The present inventors performed ChIP analysis using the antibodies shown in Table 9 in the same manner as described in Example <6-1> in order to investigate the bindings of phosphorylated SMAD2/3, transcription inhibitor, methyl DNA binding protein, and DNMT (DNA methyltransferase), which are important factors involved in TGFβ1 signal transduction, in TRR (a). At this time, input was a part of cell extract obtained after fixing the cells in formaldehyde and DNA fractionation, which is the status right before immunoprecipitation with antibody.

Data set [3] deals with SK-Hep1 and PLC/PRF/5 cells. In words: Cell growth by MTT assay and crystal violet staining. The following applies: TGFβ1 96 hours. On the procedure:
MTT assay and crystal violet staining were performed with the cells. MTT (methylthiazoletetrazolium; Sigma-Aldrich) assay was performed by the informed technique (Mosmann T, J Immunol Methods 65:55-63, 1983) using μQuant Universal Microplate Spectrophotometer (Biotek Instruments, USA) at 570 nm. For crystal violet staining, the cells were fixed in 10% formaldehyde and stained in 10% crystal violet solution for 10 min at room temperature.
A general note: Tetrazolium assays rely on reduction of a dye to a coloured formazan, in cell work by metabolically active cells.

Data set [4] has as its system acetylation of histones H3 and H4 at TRR. The experiment in a line: ChIP analysis of histone H3 and H4 acetylation at TRR. The following applies: PLC/PRF/5 cells; regardless of AzadC pretreatment; P<0.05. On the procedure:
as §1
Chromatin is basically composed of histones and DNA. The histone status, that is, the methylation or acetylation status of histones is involved in the regulation of gene expression. Transcriptional activity is additionally dependent on the acetylation level of histones H3 and H4 in the promoter region. Moreover, TGFβ1-mediated transcription activation requires H3 acetylation (Ross S et al., EMBO J 25:4490-4502, 2006). Therefore, information about the transcriptional activity of the promoter region can be obtained by using the antibody against acetylated histone. […]

For another data set, the system named is TTP promoter. The experiment in a line: TTP promoter luciferase reporter assay. The following applies: SK-Hep1 cells; no AzadC. As for the experimental part:
To confirm that TTP expression is directly controlled by methylation of the #2 CpG site, the present inventors examined the transcriptional activity of the TTP promoter region in relation to the methylation status of the #2 CpG site using luciferase reporter assays.
Luciferase assays were performed using the Promega Luciferase Assay System (Promega, USA), according to the manufacturer's protocol. Luciferase reporter constructs were generated by amplifying TTP promoter regions from normal human genomic DNA (BioChain, USA) using the primer sets shown in Table 5 according to the method of Example <1-2>.
As a result, wild-type promoter (WT), a single base-substituted promoter (C→T), and TRR-deleted promoter (Del) were constructed. These promoters were cloned into the KpnI/BglII sites of pGL3-basic vector (Promega, USA). Ligated products were amplified in E. coli. After purification, the ligated products were transfected into SK-Hep1 cells by using LipofectAMINE Plus reagent (Invitrogen). Specifically, the luciferase reporter constructs (0.25 μg) were co-transfected with a control plasmid (0.05 μg) encoding renilla into 1×10^5 cells/well in 12-well plates. At that time, AzadC was treated 12 hours before the transfection. After treating with TGFβ1, luciferase activities were measured using a luminometer (Berthold Lumat LB9501, Bad Wildbad, Germany). […]
(In general: A reporter such as luciferase makes a cellular process visible.)

In data set [5] the test system is TTP expression in PLC/PRF/5 and SK-Hep1 cells. In words: TGFβ1-mediated TTP induction with or without AzadC (RT-PCR). As for the experimental part: as §2
TGFβ1 (R&D systems, USA) was treated thereto at the concentration of 5 μg/l for 0, 0.5, 1, 1.5, 3, 6, and 12 hours.

Data set [6] concerns PLC/PRF/5 cells. In words: Cell cycle by FACS after TTP knock-down. On the procedure: (§3) Lentiviral-based short hairpin RNAs (shRNAs) against TTP (Sigma-Aldrich; […] CTTTTT: SEQ. ID. NO. 40) or control shRNA targeting eGFP (Sigma-Aldrich) were transfected into PLC/PRF/5 cells and selected with 1 mg/l puromycin (Invitrogen). The selected PLC/PRF/5 transfectants were additionally treated with TGFβ1 for 0, 0.5, 1.0, 1.5, 2.0, and 2.5 hours. To investigate the half-life of c-Myc mRNA, actinomycin D was treated for 0, 15, 30, […], 60, and 75 minutes, and RT-PCR was performed with the cells.
FACS was performed with the cells treated in Example <7-4>.

The subject of data set [7] is c-Myc mRNA in PLC/PRF/5 cells. The experiment in a line: c-Myc mRNA degradation and half-life after TTP knock-down (RT-PCR, actinomycin D). As for the experimental part:
as §3

Data set [8] has as its system PLC/PRF/5 cells. In words: Cell growth after TTP knock-down (MTT, crystal violet staining). As for the experimental part:
SK-Hep1 and PLC/PRF/5 cells were pre-treated or not treated with AzadC for 72 hours, to which TGFβ1 was additionally treated or not treated for 96 hours. MTT assay and crystal violet staining were performed with the cells. MTT (methylthiazoletetrazolium; Sigma-Aldrich) assay was performed by the informed technique (Mosmann T, J Immunol Methods 65:55-63, 1983) using μQuant Universal Microplate Spectrophotometer (Biotek Instruments, USA) at 570 nm. For crystal violet staining, the cells were fixed in 10% formaldehyde and stained in 10% crystal violet solution for 10 min at room temperature.
as §3
Western blotting was performed with the cells treated in Example <7-4> in the same manner as described in Example <7-2-1> to investigate the levels of c-Mycand p21^Cip1. MTT and crystal violet staining were also performed in the same manner as described in Example <7-2-2>.

The mark [9] stands for this setting: PLC/PRF/5 cells (#2 CpG not methylated), TGFβ1 5 μg/l.
Setting [10] is: PLC/PRF/5 cells, both before and after TGFβ1 treatment.

Bounds are passed on as bounds.

“TGFβ1: Transforming growth factor beta 1, a multifunctional cytokine (R&D systems)”: the “binding of RNAPII proteins to the TTP locus” value in data set [1] is “significantly increased the binding of RNAPII proteins”. Besides, the c-Myc level entry in the data set with c-Myc mRNA (PLC/PRF/5 cells, TGFβ1 0-2.5 hours) is “rapidly decreased from 1 hour after TGFβ1 treatment”. In addition, the c-Myc level decrease entry in the data set on c-Myc mRNA (SK-Hep1 cells, TGFβ1 without AzadC) is reported as “not in SK-Hep1 cells”. The “binding of phospho-SMAD2/3 to TRR” value in [2] was “TGFβ1-dependent binding of phospho-SMAD2/3 to TRR was observed”. Besides, in data set [3], the cell growth result is listed as “phenotypic growth inhibition”. In data set [4], the “acetylation of histones H3 and H4 at TRR (region a)” value is on record as “significantly increased”. In addition, the “responsiveness of wild-type TTP promoter (WT) to TGFβ1, luciferase” value in the data set on TTP promoter is recorded as “not responsive”. In data set [5] (setting [9]), the “time of peak TTP expression after TGFβ1 treatment” value was found to be 1 h and the “time to increase of TTP expression after TGFβ1 treatment” value is recorded as ≤ 30 min. Also, the “induction of TTP expression” value in data set [5] (SK-Hep1 cells (high #2 CpG methylation), TGFβ1 alone 5 μg/l) is given as “not induced”. Also, the “size of the G2/M population following TGFβ1 treatment” value in the data set with PLC/PRF/5 cells [6] (PLC/PRF/5 control cells (control shRNA)) was “decreased significantly”.

With “TTP knock-down: Lentiviral-based short hairpin RNA against TTP (Sigma-Aldrich), SEQ. ID. NO. 40, transfected into PLC/PRF/5 cells (CCGGGCTTCGCCAGAGCATCAGCTTCTCGAGAAGCTGATGCTCTGGCGAAGCTTTTT; expressed or natural sequence)”, the “half-life of c-Myc mRNA” value in data set [7] (in the presence of actinomycin D, control 24 min) amounted to 51 min. In addition, the “c-Myc mRNA degradation after TGFβ1 treatment” value in data set [7] (shRNA-mediated knock-down of TTP) is “significantly retarded c-Myc mRNA degradation”. In the data set on PLC/PRF/5 cells [8], the “growth inhibitory effect of TGFβ” value is “blocking the growth inhibitory effect of TGFβ” and the growth rate result was “elevated the growth rate”. Also, the “size of the G2/M population following TGFβ1 treatment” value in the data set with PLC/PRF/5 cells [6] (PLC/PRF/5 TTP knock-down cells) was “remained unchanged”. Besides, in the data set with PLC/PRF/5 cells [6] (setting [10]), the “relative size of the G1 and sub G1 populations” value is listed as “decreased”; the “relative size of the S phase population” value is reported as “increased”.
